Data as given in patent US7183383B2, “Uses of collagen IV” (The University of Arkansas for Medical Sciences, priority 2002, dated 2007).

Columns and labels:
[1] = system: prolyl hydroxylase activity in renal proximal tubular cells; test: Proline hydroxylation in newly synthesized collagen IV (dual labeling); assay type: cell-based, rabbit; conditions: day 1 after DCVC
Source text: Proline hydroxylation in collagen molecules occurs at the 4-trans position. Therefore, the extent of proline hydroxylation can be estimated by the loss of hydrogen from the 4-trans position of proline in the hydroxylation reaction. A previously described dual-labeling technique for the determination of proline hydroxylation was modified using [^14C]-L-proline and 4-[^3H]-L-proline incorporation into collagen IV and measuring the ratio of [^3H]:[^14C] in collagen IV molecules (5). A greater extent of proline hydroxylation at the 4-trans position of proline will result in a decrease in the ratio of [^3H]:[^14C] in newly synthesized collagen molecules due to the loss of [^3H]. Renal proximal tubular cells were dual-labeled for 24 hours with [^14C]-L-proline ([…]) and 4-[^3H]-L-proline (62.5 μCi/ml) immediately after S-(1,2-dichlorovinyl)-L-cysteine exposure. Cell-associated and deposited proteins were harvested, and collagen IV was immunoprecipitated as described above. Immunoprecipitated collagen IV was visualized by SDS-PAGE as described above, the 206 kDa bands in the destained gels were excised, and the protein was extracted with 90% hyamine hydroxide overnight at 37° C. [^14C]-Proline and 4-[^3H]-proline in collagen IV was determined using liquid scintillation spectrometry, and the extent of proline hydroxylation was calculated as the ratio of [^3H]:[^14C].

[2] = system: collagen IV deposition in renal proximal tubular cells; test: Newly deposited collagen IV (immunoprecipitation, autoradiography, densitometry); assay type: cell-based, rabbit
Experimental: Immunoprecipitation of newly synthesized and deposited collagen IV was performed using the method of Niki et al., with some modifications (34). On days 1, 4, and 6 after sublethal S-(1,2-dichlorovinyl)-L-cysteine injury, renal proximal tubular cells were metabolically labeled for 24 hours with 25 μCi/ml of [^35S]-L-methionine. Cell monolayers were washed with PBS, solubilized for 30 minutes in lysis buffer (20 mM Tris-HCl (pH 8.8), 2 mM EDTA, 0.2 mM PMSF, 10 mM N-ethylmaleimide, 1% Triton X-100, 1% sodium deoxycholic acid, 150 mM NaCl, and 1 mM EGTA) containing protease inhibitors (25 μg/ml pepstatin A, 12.5 μg/ml leupeptin, 12.5 μg/ml aprotinin), and centrifuged at 15,000×g for 10 minutes at 4° C. The resulting supernatants (soluble fraction, cell-associated collagen) were transferred to fresh tubes, snap frozen in liquid N2, and stored at −80° C. Pelleted material (insoluble fraction, ECM-associated collagen) was resuspended in pellet solubilization buffer (20 mM Tris-HCl (pH 8.8), 2 mM EDTA, 0.2 mM PMSF, 10 mM N-ethylmaleimide, 1% sodium dodecyl sulfate, and 10 mM dithiothreitol), sonicated, boiled for 5 minutes, and incubated in the presence of iodoacetamide (25 mM) for 30 minutes at 37° C. with shaking. Samples were centrifuged at 15,000×g for 10 minutes at 4° C. Supernatants were then transferred to fresh microcentrifuge tubes, snap frozen in liquid N2, and stored at −80° C. Protein concentration in cell-associated and ECM-associated fractions was determined using a Coomassie protein microassay (Pierce, Rockford, Ill.) with BSA as the standard. Sample aliquots equaling 0.5 mg of total protein were diluted 3-fold in immunoprecipitation buffer (20 mM Tris-HCl (pH 8.8), 2 mM EDTA, 0.2 mM PMSF, 10 mM N-ethylmaleimide) and precleared with 20 μl (50% slurry) of Protein G-agarose beads for 2 hours. Samples were then incubated overnight with 0.05 mg of an anti-collagen IV monoclonal antibody (clone M3F7) at 4° C. with vigorous shaking. Samples were incubated for 2 hours at 4° C. with shaking in the presence of goat anti-mouse IgG at a concentration in two-fold excess of that of the primary antibody. Immune complexes were precipitated for 2 hours at 4° C. with shaking using 40 μl (50% slurry) of Protein G-agarose beads.
To collect the collagen IV immune complexes, samples were centrifuged at 15,000×g for 1 minute at 4° C. […]
(§1) Radiolabeled collagen IV was separated by SDS-PAGE and visualized by autoradiography (22). […] After film development, densitometry of the resulting 206 kDa bands was calculated using NIH Image software.

[3] = system: collagen IV synthesis in renal proximal tubular cells; test: Newly synthesized collagen IV (immunoprecipitation, autoradiography, densitometry); assay type: cell-based, rabbit
Experimental: Immunoprecipitation of newly synthesized and deposited collagen IV was performed using the method of Niki et al., with some modifications (34). On days 1, 4, and 6 after sublethal S-(1,2-dichlorovinyl)-L-cysteine injury, renal proximal tubular cells were metabolically labeled for 24 hours with 25 μCi/ml of [^35S]-L-methionine. Cell monolayers were washed with PBS, solubilized for 30 minutes in lysis buffer (20 mM Tris-HCl (pH 8.8), 2 mM EDTA, 0.2 mM PMSF, 10 mM N-ethylmaleimide, 1% Triton X-100, 1% sodium deoxycholic acid, 150 mM NaCl, and 1 mM EGTA) containing protease inhibitors (25 μg/ml pepstatin A, 12.5 μg/ml leupeptin, 12.5 μg/ml aprotinin), and centrifuged at 15,000×g for 10 minutes at 4° C. The resulting supernatants (soluble fraction, cell-associated collagen) were transferred to fresh tubes, snap frozen in liquid N2, and stored at −80° C. […] Protein concentration in cell-associated and ECM-associated fractions was determined using a Coomassie protein microassay (Pierce, Rockford, Ill.) with BSA as the standard. […]
as §1

[4] = 37° C.; cited from earlier work

SMILES | ratio of 4-[^3H]-L-proline:[^14C]-L-proline greater than controls ([1]; 50 μM AscP, higher ratio = decreased proline hydroxylation) | decrease in collagen IV deposition compared to controls ([2]; day 4 after DCVC, physiological AscP, not statistically significant) | collagen IV deposition ([2]; one day after DCVC, 50 μM AscP) | increase in collagen IV synthesis ([3]; one day after DCVC, both 50 μM and 500 μM AscP) [fold] | ratio of 4-[^3H]-L-proline:[^14C]-L-proline greater than controls ([1]; 500 μM AscP) | collagen IV deposition in DCVC-injured RPTC ([2]; 500 μM AscP, throughout the experiment) | collagen IV deposition by uninjured RPTC, pharmacological vs physiological AscP ([2]; uninjured RPTC, not statistically significant) | stable in culture media [4] [days] | collagen IV synthesis, 500 μM compared to 50 μM AscP ([3]; day 1, uninjured RPTC)
N[C@@H](CSC(Cl)=CCl)C(=O)O [S-(1,2-dichlorovinyl)-L-cysteine] | approximately 80% | approximately 50% | significantly inhibited | 1.8 | – | – | – | – | –
O=C1O[C@H]([C@@H](O)CO)C(O)=C1OP(=O)(O)O [L-ascorbic acid-2-phosphate, L-Ascorbic acid-2-phosphate] | – | – | – | – | approximately 45% | maintained collagen IV deposition at levels equal to that of controls | numerical increase | ≥ 7 | decreased
